Measured values: publication PMC11637483, “Dissecting caspase-2-mediated cell death: from intrinsic PIDDosome activation to chemical modulation” (Protein & Cell, 2024)

What was measured:
[1] = system: caspase-2 interdomain linker mutants in HeLa TKO cells; assay: Cell death and caspase-2 activation in HeLa TKO cells expressing caspase-2 linker mutants; assay type: cell-based
Text: Figure 4. HUHS015 activates human caspase-2 directly through specific targeting of the interdomain linker of caspase-2. (A) The direct binding between HUHS015-36 and MBP-fused human caspase-2 pro-domain was detected by microscale thermophoresis (MST). MST profiles for raw binding signals and affinity (KD) measurement are shown. The calculated dissociation constant (KD) is expressed as means ± s.d. from two determinations. (B) Sequence alignment of the pro-domain (residues 1–169) of human and mouse caspase-2. CARD domain annotation is shown on top of the sequences. Identical residues are in red background and conserved ones are in red. Numbers of starting residues are indicated on the left. Different residues in the interdomain linker (residues 122–169) were highlighted with green color. (C) HUHS015 activates human but not mouse caspase-2. HeLa TKO cells rescued with human or mouse caspase-2 expression were treated with HUHS015 for the indicated time. ATP-based cell viability and immunoblotting detecting caspase-2 processing are shown. […] ATP-based cell viability in panels (C–E) is expressed as mean ± s.d. from three technical replicates. […] TEXT PRINTED IN THE PICTURE: (A) HUHS015-36: MBP-CASP2(32–165) vs. HUHS015-36: KD (μmol/L): 22.05 ± 6.151; MBP vs. HUHS015-36: KD (μmol/L): Not detected […]

Hepa1-6 cells = assay: Cell death and caspase-2 processing in Hepa1-6 cells; assay type: cell-based, mouse; details: Hepa1-6, 8 h
Text: (§1) We further examined whether HUHS015-derived compounds could activate endogenous caspase-2 in human cells. […] Complementing the CASP2^−/− Jurkat cells with exogenous caspase-2 restored HUHS015-36-induced apoptosis, in which caspase-2 was expectedly processed (Fig. 5A and 5B). We also profiled caspase-2 expression in a panel of 10 mouse tumor cell lines and observed highly variable expression levels (Fig. 5C). […] In B16-F10 (melanoma), LLC1 (Lewis lung carcinoma), MB49 (bladder carcinoma), KPC (pancreatic ductal adenocarcinoma), and 4T1 (mammary carcinoma) cells, caspase-2 was expressed at much lower levels (Fig. 5C). In contrast, EMT6 (mammary carcinoma), EL4 (T lymphoblast), and Hepa1-6 (hepatoma) feature robust caspase-2 expression, much higher than in Jurkat cells (Fig. 5C).
(§2) Figure 5. HUHS015-36 activates endogenous caspase-2 to induce apoptosis in Jurkat cells but not mouse cells. (A and B) HUHS015-36 activates endogenous caspase-2 and induces apoptosis in human Jurkat cells. […] Lysates of 10 mouse cancer cell lines were analyzed by immunoblotting using indicated antibodies. […] ATP cell viability (A and D) is expressed as mean ± s.d. from three technical replicates. […]
(§3) Cell viability was measured by the ATP assay using the CellTiter-Glo® Luminescent Cell Viability Assay kit (Promega).

Jurkat cells = assay: Cell death and caspase-2 processing in Jurkat cells (endogenous caspase-2); assay type: cell-based, human; details: 8 h
Text: as §1
as §2, with “mouse” for “mouse cells. (A and B) HUHS015-36 activates endogenous caspase-2 and induces apoptosis in human Jurkat”
as §3
To stimulate caspase-2 activation, PIDD1-CC controlled by a Tet-On inducible system was introduced into indicated cells. […] Cell lysates were analyzed by standard immunoblotting.

EL4 cells = assay: Cell death and caspase-2 processing in EL4 cells; assay type: cell-based, mouse; details: EL4, 8 h
Text: as §1, §2, §3

Structure (SMILES) | caspase-2 activation and cell death ([1]; human caspase-2 with L150 and Y151 replaced by mouse P150 and H151, 5 h) | caspase-2 activation and apoptosis ([1]; mouse caspase-2 with P150 and H151 replaced by L150 and Y151, 5 h) | caspase-2 processing and cell death (Hepa1-6 cells) | caspase-2 processing and cell death (Jurkat cells; CASP2 knockout Jurkat cells) | caspase-2 processing and cell death (Jurkat cells; WT Jurkat cells) | caspase-2 processing and cell death (EL4 cells)
Cc1ccc2nc(-n3nc(C)c(Cc4ccccc4)c3O)[nH]c2c1 [HUHS015] | abolished | capable of being activated | – | – | – | –
Cc1cccc2nc(-n3nc4c(c3O)CCCC4)[nH]c12 [HUHS015-36] | – | – | no caspase-2 processing and cell death were detected | completely diminished | induced evident caspase-2 processing and cell death | no caspase-2 processing and cell death were detected
